From PubChem BioAssay (NCI) come the findings set out here.

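How tested: cells in 96-well plates exposed to compound for 48 hours at five concentrations. TGI: concentration producing complete growth inhibition.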

Test systems include TK-10 renal; OVCAR-3 ovarian; RXF 393 renal; SF-539 CNS; BT-549 breast; SF-268 CNS; SK-MEL-5 melanoma; NCI-H23 lung; MOLT-4 leukemia; SR leukemia.
Common to all, as to assay: growth of human tumour cells (NCI), 48 h

With `CC1SC2(CCCCC2)N(NC(=O)CSc2nc3ccc(Cl)cc3c(=O)n2-c2ccccc2)C1=O` (stereo not drawn), the TGI in the assay on TK-10 renal is greater than 100 µM; with OVCAR-3 ovarian, 32.8 µM; in the assay on RXF 393 renal, 38.5 µM; with SF-539 CNS, 33 µM; with BT-549 breast, 36.4 µM; in the assay with SF-268 CNS, 54.8 µM. Moreover, the TGI in the assay with SK-MEL-5 melanoma worked out at 27.9 µM; in the assay with NCI-H23 lung it was 57.4 µM; in the assay with MOLT-4 leukemia, 47.2 µM.
As for `Cn1c2ccccc2c2cc(N3CCCC3)c3c(c21)C(=O)N(c1ccccc1)C3=O`, the TGI in the assay with TK-10 renal is greater than 100 µM; in the assay on SR leukemia it was greater than 100 µM; with OVCAR-3 ovarian it was greater than 100 µM; with RXF 393 renal, 91.2 µM; in the assay with BT-549 breast it was greater than 100 µM; in the assay with SF-268 CNS it was greater than 100 µM. Further, the TGI with SK-MEL-5 melanoma, in the assay on NCI-H23 lung and in the assay on MOLT-4 leukemia was greater than 100 µM each time.
Regarding `N/C(=N\Nc1ccc(Cl)cc1)c1cnccn1`, the TGI with TK-10 renal, in the assay on SR leukemia, in the assay on OVCAR-3 ovarian, in the assay with RXF 393 renal, in the assay on BT-549 breast and in the assay on SF-268 CNS was greater than 100 µM throughout. The TGI in the assay with SK-MEL-5 melanoma was 54.6 µM; in the assay on NCI-H23 lung it was greater than 100 µM; with MOLT-4 leukemia, greater than 100 µM.
Consider `O=C(CN1CCCCC1)Nc1ccc2c(c1)C1Oc3ccccc3CC1CO2` (stereo not drawn), for which the TGI was 50.9 µM with TK-10 renal; greater than 100 µM in the assay with SR leukemia; 64.9 µM in the assay with OVCAR-3 ovarian; 36 µM in the assay with SF-539 CNS; 44.6 µM with BT-549 breast; greater than 100 µM in the assay on SF-268 CNS. In addition, the TGI in the assay with SK-MEL-5 melanoma was 26.7 µM; in the assay on NCI-H23 lung, greater than 100 µM; in the assay with MOLT-4 leukemia it was greater than 100 µM.
For the molecule `C/C=C(\C)C(=O)O[C@@H]1CC(C)(C)CC2C3=CCC4[C@]56CC[C@](O)(OC5)C(C)(C)C6CC[C@@]4(C)C3(C)CC[C@]21C(=O)O` (stereo partly drawn), the TGI in the assay with TK-10 renal, with OVCAR-3 ovarian, in the assay on RXF 393 renal, in the assay with SF-539 CNS, with BT-549 breast and in the assay with SF-268 CNS was greater than 100 µM in each case. In addition, the TGI with SK-MEL-5 melanoma, in the assay on NCI-H23 lung and in the assay with MOLT-4 leukemia was greater than 100 µM each time.
Regarding `CN1CCc2c(sc3ncn(Nc4ccc(Cl)cc4)c(=N)c23)C1`, the TGI in the assay on TK-10 renal, with OVCAR-3 ovarian, with RXF 393 renal, in the assay on SF-539 CNS, in the assay with BT-549 breast and with SF-268 CNS was greater than 100 µM in each case. In addition, the TGI with SK-MEL-5 melanoma, in the assay on NCI-H23 lung and in the assay with MOLT-4 leukemia was greater than 100 µM each time.
For `CC(=O)O[C@H]1C(=O)[C@@]2(C)[C@H]([C@H](OC(=O)c3ccccc3)[C@]3(O)C[C@H](OC(=O)[C@H](O)[C@@H](NC(=O)c4ccccc4)c4cccc(N(C)C)c4)C(C)=C1C3(C)C)[C@]1(OC(C)=O)CO[C@@H]1C[C@@H]2O`, the TGI in the assay with TK-10 renal is greater than 60 µM; in the assay with SR leukemia, 9.71 µM; in the assay on OVCAR-3 ovarian, 0.586 µM; with RXF 393 renal, 1.24 µM; in the assay with SF-539 CNS, 1.08 µM; in the assay with BT-549 breast it was 3.51 µM. Further, the TGI in the assay with SF-268 CNS is greater than 75 µM; with SK-MEL-5 melanoma it was 11.3 µM; with NCI-H23 lung, greater than 75 µM.
`COc1ccc(-c2ncn(C[Si](C)(C)C)c2-c2ccc(OC)cc2)cc1`: the TGI in the assay on TK-10 renal was found to be 20 µM; in the assay on SR leukemia it was 66.2 µM; in the assay with RXF 393 renal, 21.1 µM; in the assay with SF-539 CNS, 27.5 µM; with BT-549 breast it was 72.3 µM; with SF-268 CNS, 28.7 µM. Moreover, the figures for the TGI with SK-MEL-5 melanoma, in the assay on NCI-H23 lung and with MOLT-4 leukemia were 10.2 µM, 18.5 µM and 4.22 µM, respectively.
For `CCCCCCCCP(=O)(O)OP(=O)(O)OCC1OC(n2ccc(N)nc2=O)C(O)C1O` (stereo not drawn), the TGI in the assay with TK-10 renal, with OVCAR-3 ovarian, in the assay on RXF 393 renal, in the assay with SF-539 CNS, in the assay with BT-549 breast and in the assay with SF-268 CNS was greater than 100 µM throughout. In addition, the TGI in the assay with SK-MEL-5 melanoma, with NCI-H23 lung and in the assay on MOLT-4 leukemia was greater than 100 µM in each case.
Regarding `Cc1ccc(N=Nc2c(O)ccc3cc(S(=O)(=O)O)ccc23)cc1`, the TGI with TK-10 renal, in the assay on OVCAR-3 ovarian, in the assay on RXF 393 renal, in the assay on SF-539 CNS, with BT-549 breast and in the assay on SF-268 CNS was greater than 100 µM throughout. In addition, the TGI with SK-MEL-5 melanoma, in the assay on NCI-H23 lung and in the assay on MOLT-4 leukemia was greater than 100 µM throughout.
For the molecule `O=C(N/N=C\c1cccc2ccccc12)Nc1cccc2ccccc12`, the TGI in the assay on TK-10 renal is 56.5 µM; in the assay on SR leukemia it was 13.6 µM; with RXF 393 renal it was 43.4 µM; in the assay with SF-539 CNS, 42.1 µM; in the assay with BT-549 breast it was greater than 100 µM; in the assay with SF-268 CNS, greater than 100 µM. Besides, the TGI in the assay with SK-MEL-5 melanoma and with NCI-H23 lung was greater than 100 µM in each case.
As to `COC(=O)c1c(C)cccc1C1CN=NC12Cc1cc(C)cc(C)c1C2=O` (stereo not drawn), the TGI with TK-10 renal is 98.3 µM; in the assay on OVCAR-3 ovarian it was greater than 100 µM; in the assay on RXF 393 renal it was greater than 100 µM; with SF-539 CNS, greater than 100 µM; in the assay with BT-549 breast it was greater than 100 µM; in the assay with SF-268 CNS it was greater than 100 µM. The TGI in the assay on SK-MEL-5 melanoma was 44.6 µM; with NCI-H23 lung, 78.4 µM; in the assay on MOLT-4 leukemia it was greater than 100 µM.
Consider `CCCCSC1=N/C(=C\c2ccc(N(C)C)cc2)C(=O)N1`, for which the TGI is greater than 100 µM in the assay with TK-10 renal; 73.1 µM with OVCAR-3 ovarian; greater than 100 µM with RXF 393 renal; 63.9 µM in the assay on SF-539 CNS; greater than 100 µM with BT-549 breast; greater than 100 µM with SF-268 CNS. The TGI in the assay with SK-MEL-5 melanoma, in the assay on NCI-H23 lung and in the assay with MOLT-4 leukemia was greater than 100 µM each time.
Regarding `COC(=O)C1=C(C(=O)OC)C(N(C)C)C(C(=O)OC)=C(C(=O)OC)S1`, the TGI with TK-10 renal, with SR leukemia, with OVCAR-3 ovarian, with RXF 393 renal, in the assay with BT-549 breast and with SF-268 CNS was greater than 100 µM throughout. Also, the TGI in the assay on NCI-H23 lung and in the assay on MOLT-4 leukemia was greater than 100 µM in each case.
As to `O=C(c1cccs1)N1CCCN(C(=O)c2cccs2)C1=S`, the TGI in the assay on TK-10 renal, with OVCAR-3 ovarian, in the assay with RXF 393 renal, with SF-539 CNS, with BT-549 breast and in the assay on SF-268 CNS was greater than 100 µM in each case. Moreover, the TGI in the assay with SK-MEL-5 melanoma, in the assay on NCI-H23 lung and with MOLT-4 leukemia was greater than 100 µM in each case.
